From patent US4551455A, “Method of treating high blood pressure using 6-[4-(1-imidazolyl)-phenyl]-5-methyl-3-oxo-tetrahydropyridazines” (A. Nattermann & Cie GmbH, priority 1982, dated 1985)
Where two headings read alike, the source gives them in different places.

Assays:
thrombin formation = test: reduction of thrombin formation in narcotized rats; assay type: in vivo, rat
Procedure: (§1) For investigation of the pharmacodynamic properties, the following methods (1) through (4) were employed.
(4) The reduction of thrombin formation in narcotized rats was evaluated. The test of the reduction of thrombin formation by the substances of the present invention 6-[4-(1-imidazolyl)phenyl]-5-methyl-3-oxo-2,3,4,5-tetrahydropyridazine (A) and 6-[4-(2-methyl-1-imidazolyl)-phenyl]-5-methyl-3-oxo-2,3,4,5-[…] (B) in parallel with the reference substance acetylsalicylic acid (D) was carried out by oral administration to narcotized rats.

normotensive Wistar rats = test: blood pressure-lowering effect on narcotized rats; assay type: in vivo, rat (male adult normotensive Wistar); conditions: for Average arterial pressure / Heart frequency: rats, 3.16 mg/kg orally, n = 5, narcotized 90 min after application; for Average arterial pressure: control 112.8 ± 4.8; for Heart frequency: control 307 ± 11
Procedure: as §1
(1) The blood pressure-lowering effect on narcotized rats was evaluated. For testing of the blood pressure-lowering effect, the invention substance 6-[4-(imidazolyl)phenyl]-5-methyl-3-oxo-2,3,4,5-tetrahydropyridazine (A) was administered in parallel with the reference substance 1-hydrazinophthalazine (hydralazine) (C) orally to groups of 5 male adult normotensive Wistar rats. Ninety minutes after application, the animal was narcotized with 75 mg/kg of intraperitoneal phenobarbital, and the trachea and the carotid artery were cannulated.

[1] = system: collagen-induced thrombocyte aggregation; test: inhibition of collagen-induced thrombocyte aggregation in vitro (method of Born, modified); assay type: cell-based, human; conditions: read-out: IC50 (concentration that caused a 50% reduction of the aggregation)
Procedure: as §1
(3) The inhibition of collagen-induced thrombocyte aggregation in vitro was evaluated. The suppression of collagen-induced thrombocyte aggregation in vitro was carried out on thrombocyte-rich human plasma with the inventive substance 6-[4-(1-imidazolyl)-phenyl]-5-methyl-3-oxo-2,3,4,5-tetrahydropyridazine (A) in parallel with the reference substance acetylsalicyclic acid (D) according to the method of Born (Nature, 194, 927-929 (1962)) in modified form (simultaneous application). The concentration that caused a 50% reduction of the aggregation was defined as IC50 in Table 3 set forth below.

anaesthetized dogs = test: blood pressure-lowering effect on anaesthetized dogs; assay type: in vivo, dog; conditions: for influence on blood pressure (in words): Table 2, anaesthetized dogs; for Pressure, Δ mmHg, diastolic / Pressure, Δ mmHg, systolic: anaesthetized dogs, 0.316 mg/kg intraduodenally, change in pressure
Procedure: as §1
(2) The blood pressure-lowering effect on anaesthetized dogs was evaluated. The influence on the systolic and diastolic blood preessure of the subject compounds 6-[4-(1-imidazolyl)phenyl]-5-methyl-3-oxo-2,3,4,5-tetrahydropyridazine (A) and 6-[4-(2-methyl-1-imidazolyl)-phenyl]-5-methyl-3-oxo-2,3,4,5-tetrahydropyridazine (B) were studied on the anaesthetized dogs by intraduodenal administration.

Structure (SMILES) | Reduction in % (thrombin formation) (thrombin formation; 10 mg/kg orally) | blood pressure-lowering effect on the rats (in words) (normotensive Wistar rats; Table 1, in comparison with hydralazine C) | Average arterial pressure (normotensive Wistar rats) | Heart frequency (normotensive Wistar rats) | IC50 ([1]; thrombocyte-rich human plasma, collagen-induced, simultaneous application) | influence on blood pressure (in words) (anaesthetized dogs) | Pressure, Δ mmHg, diastolic (anaesthetized dogs) | Pressure, Δ mmHg, systolic (anaesthetized dogs) | Reduction in % (thrombin formation) (thrombin formation; 100 mg/kg orally) | IC50 ([1]; Homo sapiens)
CC1CC(=O)NN=C1c1ccc(-n2ccnc2)cc1 (stereo not shown) [Substance A, 6-[4-(1-imidazolyl)phenyl]-5-methyl-3-oxo-2,3,4,5-tetrahydropyridazine] | -52% | powerful blood pressure-lowering effect | 54.8 ± 8.9 mmHg | 415 ± 17 beats/min. | 2400 nM | strong influence on blood pressure | -51.42 mmHg | -51.77 mmHg |  | 
NNc1nncc2ccccc12 [Substance C, 1-hydrazinophthalazine, reference compound] |  |  | 82.0 ± 6 mmHg | 356 ± 8 beats/min. |  |  |  |  |  | 
Cc1nccn1-c1ccc(C2=NNC(=O)CC2C)cc1 (stereo not shown) [Substance B, 6-[4-(2-methyl-1-imidazolyl)-phenyl]-5-methyl-3-oxo-2,3,4,5-tetrahydropyridazine] | -48% |  |  |  |  | strong influence on blood pressure | -43.80 mmHg | -48.18 mmHg |  | 
CC(=O)Oc1ccccc1C(=O)O [Substance D, acetylsalicylic acid, reference compound] |  |  |  |  |  |  |  |  | -45% | > 300000 nM
